One experiment has as its system MV4-11 cells. Briefly: Cell proliferation assay (ATPlite). Format: cell-based. The settings on record: Homo sapiens, MV4-11, 120 h; MV-411 cells, five days; read-out: In vitro whole cell potency in MV-411 cells, (IC50). As for the experimental part:
(iv) Cell Proliferation Assay
MV4-11 cells were seeded into a 96-well plate at 1,000 cells/well in 150 μl medium (Alpha-MEM containing 10% FBS, 100 μg/ml Normocin, and 50 μg/ml Gentamycin, Invitrogen). A HP D300 digital dispenser was used to dose cells with DMSO or test compounds across a 10-point range of concentrations (high dose of 10 μM), and cultures were grown in a humidified 5% CO2 incubator at 37° C. After five days, plates were removed from the incubator and equilibrated to room temperature. An equal volume of ATPlite assay reagent was added to each well, and samples were processed according to manufacturer's instructions (Perkin Elmer). Luminescent signal was measured using an Envision plate reader equipped with a US-Luminescence detector.

For a further experiment, the target named is WDR5 (Homo sapiens (Human), UniProt P61964). Briefly: Surface Plasmon Resonance (SPR) assay, KD and residence time. Format: binding. The note with it: for Kd: read-out: WDR5 binding affinity (KD).
Where [1] appears, read: surface plasmon resonance (SPR) assay.
Where [2] appears, read: surface plasmon resonance (SPR).

Like-named read-outs stand apart in the source and are kept apart here.

In the case of `CC1CN(c2cc(F)c(-c3cnc(C#N)nc3)cc2NC(=O)c2c[nH]c(=O)cc2C(F)(F)F)CCN1C` (stereo in doubt) [Example 197, N-[5-(2-cyanopyrimidin-5-yl)-4-fluoro-2-[(3R)-3,4-dimethylpiperazin-1-yl]phenyl]-6-oxo-4-(trifluoromethyl)-1H-pyridine-3-carboxamide], the IC50 in the experiment on MV4-11 cells stood at 44 nM. In addition, on WDR5 (setting [1]), the dissociation constant (Kd) was 0.681 nM. Regarding `C[C@@H]1CN(c2cc(F)c(-c3cnc(N4CCO[C@@H](C)C4)nc3)cc2NC(=O)c2cn(C)c(=O)cc2C(F)(F)F)C[C@H](C)N1C` (racemic) [Example 451, N-[4-fluoro-5-[2-[(2R)-2-methylmorpholin-4-yl]pyrimidin-5-yl]-2-[(3S,5R)-3,4,5-trimethylpiperazin-1-yl]phenyl]-1-methyl-6-oxo-4-(trifluoromethyl)pyridine-3-carboxamide], in the experiment on MV4-11 cells, the IC50 came out at 92 nM. The Kd on WDR5 (setting [2]) is 1.72 nM.

For the compound `C[C@@H]1CN(c2nccc(-c3cc(NC(=O)c4c[nH]c(=O)cc4C(F)(F)F)c(N4CCN(C)[C@H](C)C4)cc3F)n2)CCO1` (stereo in doubt) [Example 593, N-[4-fluoro-2-[(3R)-3,4-dimethylpiperazin-1-yl]-5-[2-[(2R)-2-methylmorpholin-4-yl]pyrimidin-4-yl]phenyl]-6-oxo-4-(trifluoromethyl)-1H-pyridine-3-carboxamide], the IC50 with MV4-11 cells was determined as 14 nM. Besides, at WDR5 (setting [2]), the Kd was determined as 0.737 nM.

Consider `CC1CN(c2cc(F)c(-c3cnc(N4C[C@@H](C)O[C@@H](C)C4)nc3)cc2NC(=O)c2cn(C)c(=O)cc2C(F)F)CCN1C` (stereo in doubt) [Example 383, 4-(difluoromethyl)-N-[4-fluoro-5-[2-[(2R,6S)-2,6-dimethylmorpholin-4-yl]pyrimidin-5-yl]-2-[(3R)-3,4-dimethylpiperazin-1-yl]phenyl]-1-methyl-6-oxopyridine-3-carboxamide], for which the IC50 in the experiment on MV4-11 cells came out at 149 nM. Besides, the Kd at WDR5 (setting [1]) worked out at 1.19 nM. Regarding `CC(C)COc1ncc(-c2cc(NC(=O)c3c[nH]c(=O)cc3C(F)(F)F)c(N3C[C@@H](C)N(C)[C@@H](C)C3)cc2F)cc1Cl` [Example 91, N-[5-[5-chloro-6-(2-methylpropoxy)pyridin-3-yl]-4-fluoro-2-[(3R,5S)-3,4,5-trimethylpiperazin-1-yl]phenyl]-6-oxo-4-(trifluoromethyl)-1H-pyridine-3-carboxamide], the IC50 in the experiment on MV4-11 cells was 257 nM. Moreover, the dissociation constant (Kd) at WDR5 (setting [1]) was 4.47 nM. As to `C[C@@H]1CN(c2ncc(-c3cc(NC(=O)c4ccc(F)cc4C(F)(F)F)c(N4CCN(C)[C@@H](C)C4)cc3F)cn2)CCO1` [Example 456, 4-fluoro-N-[4-fluoro-2-[(3S)-3,4-dimethylpiperazin-1-yl]-5-[2-[(2R)-2-methylmorpholin-4-yl]pyrimidin-5-yl]phenyl]-2-(trifluoromethyl)benzamide], the IC50 in the experiment on MV4-11 cells turned out to be 89 nM. Further, the Kd on WDR5 (setting [2]) came to 1.08 nM. The matching figures for `C[C@@H]1CN(c2cc(F)c(C3=CCCN(c4ncc(CN(C)C)cn4)C3)cc2NC(=O)c2c[nH]c(=O)cc2C(F)(F)F)C[C@H](C)N1C` [Example 414, N-[5-[1-[5-[(dimethylamino)methyl]pyrimidin-2-yl]-3,6-dihydro-2H-pyridin-5-yl]-4-fluoro-2-[(3R,5S)-3,4,5-trimethylpiperazin-1-yl]phenyl]-6-oxo-4-(trifluoromethyl)-1H-pyridine-3-carboxamide]: 8 nM and 0.658 nM. Regarding `C[C@@H]1CN(c2cc(F)c(C3=CCCN(c4ncc(CO)cn4)C3)cc2NC(=O)c2c[nH]c(=O)cc2C(F)(F)F)C[C@H](C)N1C` [Example 413, N-[4-fluoro-5-[1-[5-(hydroxymethyl)pyrimidin-2-yl]-3,6-dihydro-2H-pyridin-5-yl]-2-[(3R,5S)-3,4,5-trimethylpiperazin-1-yl]phenyl]-6-oxo-4-(trifluoromethyl)-1H-pyridine-3-carboxamide], the IC50 in the experiment on MV4-11 cells is 57 nM. For the same compound, the Kd at WDR5 (setting [2]) was determined as 0.302 nM. The like results for `CC(C)OC(=O)N1CC=C(c2cc(NC(=O)c3c[nH]c(=O)cc3C(F)(F)F)c(N3C[C@@H](C)N(C)[C@@H](C)C3)cc2F)C1` [Example 600, Propan-2-yl 3-[2-fluoro-5-[[6-oxo-4-(trifluoromethyl)-1H-pyridine-3-carbonyl]amino]-4-[(3R,5S)-3,4,5-trimethylpiperazin-1-yl]phenyl]-2,5-dihydropyrrole-1-carboxylate] were, in that order, 52 nM and 0.779 nM.

For the compound `C[C@@H]1CN(c2ncc(-c3cc(NC(=O)c4c[nH]c(=O)cc4C(F)F)c(N4CCN(C)[C@H](C)C4)cc3F)cn2)CCO1` (stereo in doubt) [Example 398, 4-(difluoromethyl)-N-[4-fluoro-2-[(3R)-3,4-dimethylpiperazin-1-yl]-5-[2-[(2R)-2-methylmorpholin-4-yl]pyrimidin-5-yl]phenyl]-6-oxo-1H-pyridine-3-carboxamide], the IC50 in the experiment on MV4-11 cells worked out at 44 nM. In addition, the Kd at WDR5 (setting [2]) was found to be 0.899 nM.

As for `C[C@@H]1CN(c2ccc(-c3cc(NC(=O)c4c[nH]c(=O)cc4C(F)F)c(N4C[C@@H](C)N(C)[C@@H](C)C4)cc3F)cn2)CCO1` [Example 508, 4-(difluoromethyl)-N-[4-fluoro-5-[6-[(2R)-2-methylmorpholin-4-yl]pyridin-3-yl]-2-[(3R,5S)-3,4,5-trimethylpiperazin-1-yl]phenyl]-6-oxo-1H-pyridine-3-carboxamide], the IC50 in the experiment on MV4-11 cells is 73 nM. Further, the Kd at WDR5 (setting [2]) came to 2.66 nM.

Take `CC1CN(c2cc(F)c(-c3cnc(N4CCNCC4)nc3)cc2NC(=O)c2cn(C)c(=O)cc2C(F)(F)F)CCN1C` (stereo in doubt) [Example 464, N-[4-fluoro-5-(2-piperazin-1-ylpyrimidin-5-yl)-2-[(3R)-3,4-dimethylpiperazin-1-yl]phenyl]-1-methyl-6-oxo-4-(trifluoromethyl)pyridine-3-carboxamide]: the IC50 in the experiment with MV4-11 cells came out at 49 nM. Moreover, the Kd on WDR5 (setting [2]) was determined as 2.21 nM. On to `C[C@@H]1CN(c2ncc(-c3cc(NC(=O)c4ccc(F)cc4C(F)(F)F)c(N4CCN(C)[C@@H](C)C4)cc3F)cn2)C[C@H](C)O1` (racemic) [Example 430, 4-fluoro-N-[4-fluoro-5-[2-[(2R,6S)-2,6-dimethylmorpholin-4-yl]pyrimidin-5-yl]-2-[(3R)-3,4-dimethylpiperazin-1-yl]phenyl]-2-(trifluoromethyl)benzamide], for which the IC50 with MV4-11 cells amounted to 49 nM. Moreover, the Kd on WDR5 (setting [2]) came out at 0.296 nM. As to `C[C@@H]1CN(c2cc(F)c(-c3ccc4c(c3)OCO4)cc2NC(=O)c2c[nH]c(=O)cc2C(F)(F)F)C[C@H](C)N1C` [Example 63, N-[5-(1,3-benzodioxol-5-yl)-4-fluoro-2-[(3R,5S)-3,4,5-trimethylpiperazin-1-yl]phenyl]-6-oxo-4-(trifluoromethyl)-1H-pyridine-3-carboxamide], in the experiment on MV4-11 cells, the IC50 was determined as 206 nM. Moreover, on WDR5 (setting [1]), the Kd was 0.694 nM.

`C[C@@H]1CN(c2cc(F)c(C3=CCCN(C(=O)OC4(C)CCC4)C3)cc2NC(=O)c2c[nH]c(=O)cc2C(F)(F)F)C[C@H](C)N1C` [Example 471, (1-methylcyclobutyl) 5-[2-fluoro-5-[[6-oxo-4-(trifluoromethyl)-1H-pyridine-3-carbonyl]amino]-4-[(3R,5S)-3,4,5-trimethylpiperazin-1-yl]phenyl]-3,6-dihydro-2H-pyridine-1-carboxylate]: in the experiment on MV4-11 cells, the IC50 was found to be 78 nM. Also, at WDR5 (setting [2]), the dissociation constant (Kd) came out at 0.494 nM. On to `C[C@@H]1CN(c2ncc(-c3cc(NC(=O)c4ccc(F)cc4C(F)(F)F)c(N4CCN(C)[C@H](C)C4)cc3F)cn2)CCO1` (stereo in doubt) [Example 452, 4-fluoro-N-[4-fluoro-2-[(3R)-3,4-dimethylpiperazin-1-yl]-5-[2-[(2R)-2-methylmorpholin-4-yl]pyrimidin-5-yl]phenyl]-2-(trifluoromethyl)benzamide], for which the 50% inhibitory concentration (IC50) in the experiment with MV4-11 cells was found to be 62 nM. Moreover, at WDR5 (setting [2]), the Kd worked out at 0.493 nM. For the compound `C[C@@H]1CN(c2cc(F)c(-c3cnc(N4CCOCC4)nc3)cc2NC(=O)c2c[nH]nc2C(F)(F)F)C[C@H](C)N1C` [Example 42, N-[4-fluoro-5-(2-morpholin-4-ylpyrimidin-5-yl)-2-[(3R,5S)-3,4,5-trimethylpiperazin-1-yl]phenyl]-3-(trifluoromethyl)-1H-pyrazole-4-carboxamide], in the experiment with MV4-11 cells, the IC50 amounted to 428 nM. Besides, the residence time at WDR5 (τ=1/koff, Table 2, read-out: Residence Time (t, min)) worked out at 3.45 min. With `Cc1cc(C(=O)Nc2cc(-c3cnc(N4CCOCC4)nc3)c(F)cc2N2C[C@@H](C)N(C)[C@@H](C)C2)cc(C)c1F` [Example 28, 4-fluoro-N-[4-fluoro-5-(2-morpholin-4-ylpyrimidin-5-yl)-2-[(3R,5S)-3,4,5-trimethylpiperazin-1-yl]phenyl]-3,5-dimethylbenzamide], in the experiment with MV4-11 cells, the IC50 was 2760 nM.

Consider `C[C@@H]1CN(c2cc(F)c(-c3ccncc3)cc2NC(=O)c2c[nH]c(=O)cc2C(F)(F)F)C[C@H](C)N1C` [Example 36, N-[4-fluoro-5-pyridin-4-yl-2-[(3R,5S)-3,4,5-trimethylpiperazin-1-yl]phenyl]-6-oxo-4-(trifluoromethyl)-1H-pyridine-3-carboxamide], for which, in the experiment on MV4-11 cells, the IC50 came out at 850 nM. As to `Cc1cc(C(=O)Nc2cc(-c3cnc(N4CCOCC4)nc3)c(F)cc2N2C[C@@H](C)N(C)[C@@H](C)C2)ccc1F` [Example 25, 4-fluoro-N-[4-fluoro-5-(2-morpholin-4-ylpyrimidin-5-yl)-2-[(3R,5S)-3,4,5-trimethylpiperazin-1-yl]phenyl]-3-methylbenzamide], in the experiment on MV4-11 cells, the IC50 is > 10000 nM.

(Values after patent publication US11319299B2, “Substituted carboxamides as inhibitors of WDR5 protein-protein binding” (PROPELLON THERAPEUTICS INC., priority 2016, dated 2022).)
